The source of these data is patent US9777003B2, “Tricyclic heterocycles as bet protein inhibitors” (Incyte Corporation, priority 2013, dated 2017).

Where a name gives a salt, the structure may show the parent alone. A value given as a limit tells only on which side of the number the result lay.

The target of assay [1] is BRD4-BD2 (Homo sapiens (Human), UniProt O60885). Nature of the assay: BRD4 AlphaScreen assay, BRD4-BD2. In kind it is binding. As to conditions: biotin-labeled tetra-acetylated histone H4 peptide, 75 min, room temperature, read-out: BRD4 BD-2 enzyme IC50. How it is done: (§1) BRD4-BD1 and BRD4-BD2 assays were conducted in white 384-well polystyrene plate in a final volume of 20 μL for BD1 and 40 μL for BD2. Inhibitors were first serially diluted in DMSO and added to the plate wells before the addition of other reaction components. The final concentration of DMSO in the assay was 1.25% (BD1) and 0.83% (BD2). The assays were carried out at room temperature for 75 min. in the assay buffer (50 mM HEPES, pH 7.4, 100 mM NaCl, 0.05% CHAPS, 0.01% BSA), containing 50 nM Biotin-labeled tetra-acetylated histone H4 peptide (H4Ac4), 3.8 nM (BRD4-BD1, BPS Bioscience #31040) or 20 nM (BRD4-BD2, BPS Bioscience #31041). The reaction followed by the addition of 20 μL of assay buffer supplemented with Streptavidin donor beads (PerkinElmer 6760002) and GSH Acceptor beads (PerkinElmer-AL109C) at 4 μg/mL under reduced light. After plate sealing, the plate was incubated in the dark at room temperature for 75 min. before reading on a PHERAstar FS plate reader (BMG Labtech). IC50 determination was performed by fitting the curve of percent control activity versus the log of the inhibitor concentration using the GraphPad Prism 5.0 software.

For assay [2], the target named is BRD4-BD1 (Homo sapiens (Human), UniProt O60885). Nature of the assay: BRD4 AlphaScreen assay, BRD4-BD1. In kind it is binding. The settings on record: biotin-labeled tetra-acetylated histone H4 peptide, 75 min, room temperature, read-out: BRD4 BD-1 enzyme IC50. The method, then:
as §1

On to `Cc1nnc2ccc3c(ccn3C(C)c3ccccc3)n12` (racemic) [Example 4, 1-methyl-6-(1-phenylethyl)-6H-pyrrolo[2,3-e][1,2,4]triazolo[4,3-a]pyridine], for which the IC50 is not above 100 nM in assay [1] and 100 to 1000 nM in assay [2].

In the case of `CCCCC(c1ccccc1)n1c(C)cc2c1ccc1nnc(C)n12` (racemic) [Example 24, 1,7-dimethyl-6-(1-phenylpentyl)-6H-pyrrolo[2,3-e][1,2,4]triazolo[4,3-a]pyridine], the IC50 in assay [1] and in assay [2] was 100 to 1000 nM each time.

For the molecule `Cc1cc2c(ccc3nnc(C)n32)n1C(CO)c1ccccc1` (racemic) [Example 29, 2-(1,7-dimethyl-6H-pyrrolo[2,3-e][1,2,4]triazolo[4,3-a]pyridin-6-yl)-2-phenylethanol], the IC50 in assay [1] and in assay [2] was 100 to 1000 nM throughout. In the case of `Cc1nnc2ccc3c(cc(-c4ccn(C(C)CC#N)n4)n3Cc3ccccc3)n12` (racemic) [Example 87, 3-[3-(6-benzyl-1-methyl-6H-pyrrolo[2,3-e][1,2,4]triazolo[4,3-a]pyridin-7-yl)-1H-pyrazol-1-yl]butanenitrile Trifluoroacetate Salt], the IC50 in assay [1] and in assay [2] was not above 100 nM in each case. Turning to `Cc1nnc2ccc3c(cc(-c4ccn(CC(C)C#N)n4)n3Cc3ccccc3)n12` (racemic) [Example 88, 3-[3-(6-benzyl-1-methyl-6H-pyrrolo[2,3-e][1,2,4]triazolo[4,3-a]pyridin-7-yl)-1H-pyrazol-1-yl]-2-methylpropanenitrile Trifluoroacetate Salt], the IC50 in assay [1] and in assay [2] was not above 100 nM throughout. Take `Cc1cc2c(cc(NC3CCCN(C)C3)c3nnc(C)n32)n1Cc1ccccc1` (racemic) [Example 144, 6-benzyl-1,7-dimethyl-N-(1-methylpiperidin-3-yl)-6H-pyrrolo[2,3-e][1,2,4]triazolo[4,3-a]pyridin-4-amine]: the 50% inhibitory concentration (IC50) in assay [1] and in assay [2] was not above 100 nM each time. In the case of `Cc1cc2c(cc(NC3CCN(C)C3)c3nnc(C)n32)n1Cc1ccccc1` (racemic) [Example 145, 6-benzyl-1,7-dimethyl-N-(1-methylpyrrolidin-3-yl)-6H-pyrrolo[2,3-e][1,2,4]triazolo[4,3-a]pyridin-4-amine bis(trifluoroacetate) Salt], the half-inhibitory concentration (IC50) in assay [1] and in assay [2] was not above 100 nM throughout. For the molecule `Cc1nnc2ccc3c(cc(C4CCNC4)n3Cc3ccccc3)n12` (racemic) [Example 186, 6-Benzyl-1-methyl-7-pyrrolidin-3-yl-6H-pyrrolo[2,3-e][1,2,4]triazolo[4,3-a]pyridine bis(trifluoroacetate) Salt], the IC50 lay within 100 to 1000 nM in assay [1] and 1000 to 10000 nM in assay [2]. Consider `CC(=O)N1CCC(c2cc3c(ccc4nnc(C)n43)n2Cc2ccccc2)C1` (racemic) [Example 187, 7-(1-Acetylpyrrolidin-3-yl)-6-benzyl-1-methyl-6H-pyrrolo[2,3-e][1,2,4]triazolo[4,3-a]pyridine Trifluoroacetate Salt], for which the IC50 in assay [1] and in assay [2] was 1000 to 10000 nM throughout. `Cc1nnc2ccc3c(cc(-c4ncco4)n3Cc3cc(Cl)cc(CN4CCC(O)C4)c3)n12` (racemic) [Example 199, 1-(3-Chloro-5-{[1-methyl-7-(1,3-oxazol-2-yl)-6H-pyrrolo[2,3-e][1,2,4]triazolo[4,3-a]pyridin-6-yl]methyl}benzyl)pyrrolidin-3-ol bis(trifluoroacetate) Salt (Racemic)]: the IC50 in assay [1] and in assay [2] was not above 100 nM each time. In the case of `Cc1cc2c(cc(N[C@H]3CCN(C)[C@H](C)C3)c3nnc(C)n32)n1Cc1ccccc1` (racemic) [Example 225, 6-Benzyl-N-[(2R,4S)-1,2-dimethylpiperidin-4-yl]-1,7-dimethyl-6H-pyrrolo[2,3-e][1,2,4]triazolo[4,3-a]pyridin-4-amine and 6-Benzyl-N-[(2S,4R)-1,2-dimethylpiperidin-4-yl]-1,7-dimethyl-6H-pyrrolo[2,3-e][1,2,4]triazolo[4,3-a]pyridin-4-amine], the IC50 in assay [1] and in assay [2] was not above 100 nM each time. On to `Cc1cc2c(cc(NC3CCC(C#N)CC3)c3nnc(C)n32)n1Cc1ccccc1` (single isomer, unassigned) [Example 215 a, 4-[(6-benzyl-1,7-dimethyl-6H-pyrrolo[2,3-e][1,2,4]triazolo[4,3-a]pyridin-4-yl)amino]cyclohexanecarbonitrile Trifluoroacetate Salt], for which the 50% inhibitory concentration (IC50) in assay [1] was not above 100 nM; in assay [2] it was 100 to 1000 nM. Regarding `Cc1cc2c(cc(N[C@H]3CC[C@@H](C#N)CC3)c3nnc(C)n32)n1Cc1ccccc1` (single isomer, unassigned) [Example 215 b, 4-[(6-benzyl-1,7-dimethyl-6H-pyrrolo[2,3-e][1,2,4]triazolo[4,3-a]pyridin-4-yl)amino]cyclohexanecarbonitrile Trifluoroacetate Salt], the IC50 in assay [1] and in assay [2] was not above 100 nM throughout. Regarding `Cc1nnc2ccc3c(ccn3Cc3ccccc3)n12` [Example 1, 6-benzyl-1-methyl-6H-pyrrolo[2,3-e][1,2,4]triazolo[4,3-a]pyridine], the figures for the IC50 in assay [1] and in assay [2] were not above 100 nM and 100 to 1000 nM, respectively.

Take `Cc1cc2c(ccc3nnc(C)n32)n1Cc1ccccc1` [Example 2, 6-benzyl-1,7-dimethyl-6H-pyrrolo[2,3-e][1,2,4]triazolo[4,3-a]pyridine]: the IC50 in assay [1] and in assay [2] was not above 100 nM in each case. Turning to `Cc1cc2c(ccc3nnc(C)n32)n1S(=O)(=O)c1ccccc1` [Example 2a, 1,7-dimethyl-6-(phenylsulfonyl)-6H-pyrrolo[2,3-e][1,2,4]triazolo[4,3-a]pyridine], in assay [1], the IC50 was in the range of 100 to 1000 nM. Regarding `Cc1nnc2ccc3c(ccn3S(=O)(=O)c3ccccc3)n12` [Example 3, 1-methyl-6-(phenylsulfonyl)-6H-pyrrolo[2,3-e][1,2,4]triazolo[4,3-a]pyridine], the IC50 in assay [1] and in assay [2] was 100 to 1000 nM each time. For `Cc1cc2c(ccc3nnc(C)n32)n1CCc1ccccc1` [Example 6, 1,7-dimethyl-6-(2-phenylethyl)-6H-pyrrolo[2,3-e][1,2,4]triazolo[4,3-a]pyridine], the IC50 in assay [1] and in assay [2] was 100 to 1000 nM each time. For the molecule `Cc1cc2c(ccc3nnc(C)n32)n1Cc1ccccn1` [Example 7, 1,7-dimethyl-6-(pyridin-2-ylmethyl)-6H-pyrrolo[2,3-e][1,2,4]triazolo[4,3-a]pyridine], the IC50 in assay [1] and in assay [2] was 100 to 1000 nM throughout. As for `Cc1cc2c(ccc3nnc(C)n32)n1Cc1ccccc1Cl` [Example 8, 6-(2-chlorobenzyl)-1,7-dimethyl-6H-pyrrolo[2,3-e][1,2,4]triazolo[4,3-a]pyridine], the IC50 in assay [1] is not above 100 nM; in assay [2], 100 to 1000 nM.

In the case of `Cc1cc2c(ccc3nnc(C)n32)n1Cc1cccc(Cl)c1` [Example 9, 6-(3-chlorobenzyl)-1,7-dimethyl-6H-pyrrolo[2,3-e][1,2,4]triazolo[4,3-a]pyridine], the IC50 in assay [1] and in assay [2] was not above 100 nM each time.

Regarding `Cc1cc2c(ccc3nnc(C)n32)n1Cc1ccc(Cl)cc1` [Example 10, 6-(4-chlorobenzyl)-1,7-dimethyl-6H-pyrrolo[2,3-e][1,2,4]triazolo[4,3-a]pyridine], the IC50 in assay [1] and in assay [2] was not above 100 nM throughout. As for `Cc1cc2c(ccc3nnc(C)n32)n1Cc1cccnc1` [Example 11, 1,7-dimethyl-6-(pyridin-3-ylmethyl)-6H-pyrrolo[2,3-e][1,2,4]triazolo[4,3-a]pyridine], the IC50 in assay [1] and in assay [2] was 100 to 1000 nM throughout. Regarding `Cc1cc2c(ccc3nnc(C)n32)n1Cc1ccncc1` [Example 12, 1,7-dimethyl-6-(pyridin-4-ylmethyl)-6H-pyrrolo[2,3-e][1,2,4]triazolo[4,3-a]pyridine], the IC50 in assay [1] and in assay [2] was 100 to 1000 nM each time. In the case of `Cc1cc2c(ccc3nnc(C)n32)n1CC1CCCC1` [Example 13, 6-(cyclopentylmethyl)-1,7-dimethyl-6H-pyrrolo[2,3-e][1,2,4]triazolo[4,3-a]pyridine], the IC50 in assay [1] was not above 100 nM; in assay [2], 100 to 1000 nM. On the same counts, the results for `Cc1cc2c(ccc3nnc(C)n32)n1Cc1ccccc1F` [Example 14, 6-(2-fluorobenzyl)-1,7-dimethyl-6H-pyrrolo[2,3-e][1,2,4]triazolo[4,3-a]pyridine] are not above 100 nM and not above 100 nM.

For the molecule `Cc1cc2c(ccc3nnc(C)n32)n1Cc1cccc(F)c1` [Example 15, 6-(3-fluorobenzyl)-1,7-dimethyl-6H-pyrrolo[2,3-e][1,2,4]triazolo[4,3-a]pyridine], the IC50 in assay [1] and in assay [2] was not above 100 nM each time.

In the case of `Cc1cc2c(ccc3nnc(C)n32)n1Cc1ccc(F)cc1` [Example 16, 6-(4-fluorobenzyl)-1,7-dimethyl-6H-pyrrolo[2,3-e][1,2,4]triazolo[4,3-a]pyridine], the IC50 in assay [1] and in assay [2] was not above 100 nM throughout. Regarding `Cc1ccccc1Cn1c(C)cc2c1ccc1nnc(C)n12` [Example 17, 1,7-dimethyl-6-(2-methylbenzyl)-6H-pyrrolo[2,3-e][1,2,4]triazolo[4,3-a]pyridine], the IC50 in assay [1] and in assay [2] was not above 100 nM in each case.
